The values that follow come from patent US10807970B2 (priority 2016, dated 2020).

For the first assay, the target named is human σ1 receptor (Homo sapiens, UniProt Q99720). The assay can be described thus: Human σ1 receptor radioligand assay ([3H](+)-pentazocine, transfected HEK-293 membranes). It is filed as binding. Also on record: μ and σ1 dual binding: key to the marks not given beside the values. Particulars: one class symbol for both Ki-σ1 (human σ1 receptor, A1) and Ki-μ (human μ-opioid receptor, A2). On the procedure: Human σ1 Receptor Radioligand Assay
Chain of human σ1 receptor (Q99720 whole entry): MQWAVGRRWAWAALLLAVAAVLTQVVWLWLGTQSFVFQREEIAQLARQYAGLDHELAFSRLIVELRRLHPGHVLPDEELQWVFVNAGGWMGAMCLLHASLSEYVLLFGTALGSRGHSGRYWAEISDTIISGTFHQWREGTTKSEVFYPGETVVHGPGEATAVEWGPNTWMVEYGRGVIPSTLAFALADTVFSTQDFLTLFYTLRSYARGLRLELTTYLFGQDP
To investigate binding properties of test compounds to human σ1 receptor, transfected HEK-293 membranes and [^3H](+)-pentazocine (Perkin Elmer, NET-1056), as the radioligand, were used. The assay was carried out with 7 μg of membrane suspension, 5 nM of [^3H](+)-pentazocine in either absence or presence of either buffer or 10 μM Haloperidol for total and non-specific binding, respectively. Binding buffer contained Tris-HCl 50 mM at pH 8. Plates were incubated at 37° C. for 120 minutes. After the incubation period, the reaction mix was then transferred to MultiScreen HTS, FC plates (Millipore), filtered and plates were washed 3 times with ice-cold 10 mM Tris-HCL (pH7.4). Filters were dried and counted at approximately 40% efficiency in a MicroBeta scintillation counter (Perkin-Elmer) using EcoScint liquid scintillation cocktail
Take `CC1(C)CC(C)(N2CCN(Cc3ccccc3)CC2)CCO1` (centres unmarked) [Example 36, 1-benzyl-4-(2,2,4-trimethyltetrahydro-2H-pyran-4-yl)piperazine]: the “μ and σ1 dual binding” value was “++”.

With `CC(C)OCCN1CCN(C2(C)CCOC(C)(C)C2)CC1` (centres unmarked) [Example 37, 1-(2-isopropoxyethyl)-4-(2,2,4-trimethyltetrahydro-2H-pyran-4-yl)piperazine], the “μ and σ1 dual binding” value is reported as “++”.

For `CCC1(N2CCN(Cc3ccccc3)CC2)CCOC(C)(C)C1` (centres unmarked) [Example 38, 1-benzyl-4-(4-ethyl-2,2-dimethyltetrahydro-2H-pyran-4-yl)piperazine], the “μ and σ1 dual binding” value is “++”.

Consider `CCC1(N2CCN(CCOC(C)C)CC2)CCOC(C)(C)C1` (centres unmarked) [Example 39, 1-(4-ethyl-2,2-dimethyltetrahydro-2H-pyran-4-yl)-4-(2-isopropoxyethyl)piperazine], for which the “μ and σ1 dual binding” value is given as “++”.

As to `CC1(C)CC(C(=O)c2ccccn2)(N2CCN(Cc3ccccn3)CC2)CCO1` (centres unmarked) [Example 50, (2,2-dimethyl-4-(4-(pyridin-2-ylmethyl)piperazin-1-yl)tetrahydro-2H-pyran-4-yl)(pyridin-2-yl)methanone], the “μ and σ1 dual binding” value is “++”.

Turning to `CC1(C)CC(C)(N2CCN(CCc3ccccc3)CC2)CCO1` (centres unmarked) [Example 53, 1-phenethyl-4-(2,2,4-trimethyltetrahydro-2H-pyran-4-yl)piperazine], the “μ and σ1 dual binding” value is recorded as “++”.

As to `CC1(C)CC(C(=O)c2ccccn2)(N2CCN(CCc3ncccc3F)CC2)CCO1` (centres unmarked) [Example 55, (4-(4-(2-(3-fluoropyridin-2-yl)ethyl)piperazin-1-yl)-2,2-dimethyltetrahydro-2H-pyran-4-yl)(pyridin-2-yl)methanone], the “μ and σ1 dual binding” value is “++”.

Take `CC(c1ccc(F)cc1)N1CCN(C2(C(=O)c3ccccn3)CCOC(C)(C)C2)CC1` (centres unmarked) [Example 63, (4-(4-(1-(4-fluorophenyl)ethyl)piperazin-1-yl)-2,2-dimethyltetrahydro-2H-pyran-4-yl)(pyridin-2-yl)methanone]: the “μ and σ1 dual binding” value is recorded as “++”.

Consider `CC1(C)CC(C(=O)c2ccccn2)(N2CCN(CCOCC(F)(F)F)CC2)CCO1` (centres unmarked) [Example 69, (2,2-dimethyl-4-(4-(2-(2,2,2-trifluoroethoxy)ethyl)piperazin-1-yl)tetrahydro-2H-pyran-4-yl)(pyridin-2-yl)methanone], for which the “μ and σ1 dual binding” value is “++”.

In the case of `CC(C)(O)COCCN1CCN(C2(C(=O)c3ccccn3)CCOC(C)(C)C2)CC1` (centres unmarked) [Example 70, (4-(4-(2-(2-hydroxy-2-methylpropoxy)ethyl)piperazin-1-yl)-2,2-dimethyltetrahydro-2H-pyran-4-yl)(pyridin-2-yl)methanone], the “μ and σ1 dual binding” value is on record as “++”.

As for `CC(C)OCCN1CCN(C2(C(=O)c3ccccn3)CC(C)(C)OC(C)(C)C2)CC1` [Example 72, (4-(4-(2-isopropoxyethyl)piperazin-1-yl)-2,2,6,6-tetramethyltetrahydro-2H-pyran-4-yl)(pyridin-2-yl)methanone], the “μ and σ1 dual binding” value is “++”.

Staying with this assay, now noted: one class symbol for both Ki-σ1 (human σ1 receptor, A1) and Ki-μ (human μ-opioid receptor, A2); read-out: μ and σ1 dual binding.
Regarding `C=CC1(N2CCN(CCc3ccccc3)CC2)CCOC(C)(C)C1` (centres unmarked) [Example 45, 1-(2,2-dimethyl-4-vinyltetrahydro-2H-pyran-4-yl)-4-phenethylpiperazine], the Ki is > 500 nM.

With `CC1(C)CC(CCO)(N2CCN(CCc3ccccc3)CC2)CCO1` (centres unmarked) [Example 48, 2-(2,2-dimethyl-4-(4-phenethylpiperazin-1-yl)tetrahydro-2H-pyran-4-yl)ethanol], the Ki was > 500 nM.

Regarding `CCC1(N2CCN(CCc3ccccc3)CC2)CCOC(C)(C)C1` (centres unmarked) [Example 52, 1-(4-ethyl-2,2-dimethyltetrahydro-2H-pyran-4-yl)-4-phenethylpiperazine], the Ki is < 500 nM.

Take `CC1(C)CC(C(=O)c2ccccn2)(N2CCN(CCc3ncccc3Cl)CC2)CCO1` (centres unmarked) [Example 56, (4-(4-(2-(3-chloropyridin-2-yl)ethyl)piperazin-1-yl)-2,2-dimethyltetrahydro-2H-pyran-4-yl)(pyridin-2-yl)methanone]: the Ki was > 500 nM.

For `CC1(C)CC(C(=O)c2ccccn2)(N2CCN(Cc3cccnc3)CC2)CCO1` (centres unmarked) [Example 58, (2,2-dimethyl-4-(4-(pyridin-3-ylmethyl)piperazin-1-yl)tetrahydro-2H-pyran-4-yl)(pyridin-2-yl)methanone], the Ki is > 500 nM.

Regarding `CC1(C)CC(C(=O)c2ccccn2)(N2CCN(Cc3ccncc3)CC2)CCO1` (centres unmarked) [Example 59, (2,2-dimethyl-4-(4-(pyridin-4-ylmethyl)piperazin-1-yl)tetrahydro-2H-pyran-4-yl)(pyridin-2-yl)methanone], the Ki is > 500 nM.

Regarding `CC(C)OCCN1CCN(C2(C(=O)c3ccccn3)CCOC(C)(C)C2)CC1` (centres unmarked) [Example 65, (4-(4-(2-isopropoxyethyl)piperazin-1-yl)-2,2-dimethyltetrahydro-2H-pyran-4-yl)(pyridin-2-yl)methanone], the Ki is < 500 nM.

With `CCOCCN1CCN(C2(C(=O)c3ccccn3)CCOC(C)(C)C2)CC1` (centres unmarked) [Example 67, (4-(4-(2-ethoxyethyl)piperazin-1-yl)-2,2-dimethyltetrahydro-2H-pyran-4-yl)(pyridin-2-yl)methanone], the Ki was > 500 nM.

For `COCCN1CCN(C2(C(=O)c3ccccn3)CCOC(C)(C)C2)CC1` (centres unmarked) [Example 68, (4-(4-(2-methoxyethyl)piperazin-1-yl)-2,2-dimethyltetrahydro-2H-pyran-4-yl)(pyridin-2-yl)methanone], the Ki was > 500 nM.

Staying with this assay, now noted: μ and σ1 dual binding, one class symbol for both Ki-σ1 (human σ1 receptor, A1) and Ki-μ (human μ-opioid receptor, A2).
Turning to `CC1(C)CC(Cc2ccccc2)(N2CCN(Cc3ccccc3)CC2)CCO1` (centres unmarked) [Example 40, 1-benzyl-4-(4-benzyl-2,2-dimethyltetrahydro-2H-pyran-4-yl)piperazine], the Ki is < 100 nM.

Turning to `CCCC1(N2CCN(CCc3ccccc3)CC2)CCOC(C)(C)C1` (centres unmarked) [Example 41, 1-(2,2-dimethyl-4-propyltetrahydro-2H-pyran-4-yl)-4-phenethylpiperazine], the Ki was < 500 nM.

With `CC(C)C1(N2CCN(CCc3ccccc3)CC2)CCOC(C)(C)C1` (centres unmarked) [Example 42, 1-(4-isopropyl-2,2-dimethyltetrahydro-2H-pyran-4-yl)-4-phenethylpiperazine], the Ki was < 100 nM.

Turning to `CC(C)C1(N2CCN(Cc3ccccc3)CC2)CCOC(C)(C)C1` (centres unmarked) [Example 43, 1-benzyl-4-(4-isopropyl-2,2-dimethyltetrahydro-2H-pyran-4-yl)piperazine], the Ki was < 500 nM.

For the compound `CC1(C)CC(C2CC2)(N2CCN(CCc3ccccc3)CC2)CCO1` (centres unmarked) [Example 44, 1-(4-cyclopropyl-2,2-dimethyltetrahydro-2H-pyran-4-yl)-4-phenethylpiperazine], the Ki was < 500 nM.

In the case of `COCCC1(N2CCN(CCc3ccccc3)CC2)CCOC(C)(C)C1` (centres unmarked) [Example 49, 1-(4-(2-Methoxyethyl)-2,2-dimethyltetrahydro-2H-pyran-4-yl)-4-phenethylpiperazine], the Ki was < 500 nM.

On to `CC(C)CN1CCN(C2(C(=O)c3ccccn3)CCOC3(CCCC3)C2)CC1` (centres unmarked) [Example 51, (9-(4-isobutylpiperazin-1-yl)-6-oxaspiro[4.5]decan-9-yl)(pyridin-2-yl)methanone], for which the Ki is < 500 nM.

As to `CC1(C)CC(C(=O)c2ccccn2)(N2CCN(CCc3ccccc3)CC2)CCO1` (centres unmarked) [Example 54, (2,2-dimethyl-4-(4-phenethylpiperazin-1-yl)tetrahydro-2H-pyran-4-yl)(pyridin-2-yl)methanone], the Ki is < 500 nM.

For `CC1(C)CC(C(=O)c2ccccn2)(N2CCN(CCc3ccncc3Cl)CC2)CCO1` (centres unmarked) [Example 57, (4-(4-(2-(3-chloropyridin-4-yl)ethyl)piperazin-1-yl)-2,2-dimethyltetrahydro-2H-pyran-4-yl)(pyridin-2-yl)methanone], the Ki was < 500 nM.

For the compound `CC1(C)CC(C(=O)c2ccccn2)(N2CCN(Cc3ccc(F)cc3)CC2)CCO1` (centres unmarked) [Example 60, (4-(4-(4-fluorobenzyl)piperazin-1-yl)-2,2-dimethyltetrahydro-2H-pyran-4-yl)(pyridin-2-yl)methanone], the Ki was < 500 nM.

Turning to `CC1(C)CC(C(=O)c2ccccn2)(N2CCN(Cc3cccc(F)c3)CC2)CCO1` (centres unmarked) [Example 61, (4-(4-(3-fluorobenzyl)piperazin-1-yl)-2,2-dimethyltetrahydro-2H-pyran-4-yl)(pyridin-2-yl)methanone], the Ki is < 500 nM.

Turning to `CC(c1ccccc1)N1CCN(C2(C(=O)c3ccccn3)CCOC(C)(C)C2)CC1` (centres unmarked) [Example 62, (2,2-dimethyl-4-(4-(1-phenylethyl)piperazin-1-yl)tetrahydro-2H-pyran-4-yl)(pyridin-2-yl)methanone], the Ki is < 500 nM.

On to `CC(C)CCN1CCN(C2(C(=O)c3ccccn3)CCOC(C)(C)C2)CC1` (centres unmarked) [Example 64, (4-(4-isopentylpiperazin-1-yl)-2,2-dimethyltetrahydro-2H-pyran-4-yl)(pyridin-2-yl)methanone], for which the Ki was < 500 nM.

`CC(C)COCCN1CCN(C2(C(=O)c3ccccn3)CCOC(C)(C)C2)CC1` (centres unmarked) [Example 66, (4-(4-(2-isobutoxyethyl)piperazin-1-yl)-2,2-dimethyltetrahydro-2H-pyran-4-yl)(pyridin-2-yl)methanone]: the Ki was < 500 nM.

As for `CC(C)OCCCN1CCN(C2(C(=O)c3ccccn3)CCOC(C)(C)C2)CC1` (centres unmarked) [Example 71, (4-(4-(3-isopropoxypropyl)piperazin-1-yl)-2,2-dimethyltetrahydro-2H-pyran-4-yl)(pyridin-2-yl)methanone], the Ki was < 500 nM.
